From patent US11186599B2, “Phosphonamide ester compound, salt thereof, related crystal form thereof, preparation method therefor and use thereof” (SICHUAN KELUN-BIOTECH BIOPHARMACEUTICAL CO., LTD., priority 2018, dated 2021)
≈ marks a conversion by molar mass, not a printed value. Where two headings read alike, the source gives them in different places.

Key:
[1] = Pharmacokinetic experiment in beagle dogs; type: in vivo; conditions: capsules intragastrically, 2.5 mg/kg
Protocol: The crystalline forms A and C of the fumarate salt of the compound of Formula (I) were encapsulated into capsules and administered intragastrically to beagle dogs at a dose of 2.5 mg/kg. Venous blood was collected at different time points after administration and separately subjected to the detection of the original free base form of the compound of Formula (I) and its metabolite tenofovir (TFV).

[2] = phase III clinical trial, cited from earlier work
[3] = Hygroscopicity test by dynamic vapor sorption (DVS); type: physicochemical; conditions: 25° C.
Protocol: The hygroscopicity of crystalline forms A and B of the fumarate salt was measured by dynamic vapor sorption (DVS) using a DVS Intrinsic (SMS) at 25° C. in a cycle-DMDT mode.

[4] = Physicochemical stability test, placed open at 40° C./75% RH; conditions: placed open 14 days at 40° C./75% RH
Protocol: An appropriate amount of crystalline form A of the fumarate salt of the compound of Formula (I) of the invention was detected for the physicochemical stability thereof under the following conditions: placed open for 14 days at 40° C./75% RH. XRPD and LC-MS analysis were then carried out to determine the crystalline form and the change in purity.

[5] = Solubility determination (shaking 24 hours, HPLC); type: physicochemical; conditions: for solubility at 24 h: thermodynamic from solid, shaking 24 hours
Protocol: An aqueous solution of pH 2.0 (the pH was adjusted with an appropriate amount of hydrochloric acid), an aqueous solution of pH 7.4 (the pH was adjusted with 10 mM potassium dihydrogen phosphate and an appropriate amount of NaOH), and a fasted-state simulated intestinal fluid (FaSSIF) were prepared as solvents, respectively. Several portions of the sample for test, 1 mg each, were weighed and dissolved in different solvents, 1 mL each. The solutions were thoroughly shaked, and then subjected to ultrasonic operation for 5 minutes. […] After shaking in a constant temperature shaking water bath for 24 hours, filtration was carried out through a 0.45 uM aqueous filter membrane, followed by HPLC analysis for determination of the solubility.

[6] = analyte: free base of the compound of Formula (I), listed as crystalline form C of the fumarate salt
[7] = beagle, dog, venous blood, po, analyte: free base of the compound of Formula (I)
[8] = analyte: free base of the compound of Formula (I), listed as crystalline form A of the fumarate salt

## C[C@H](Cn1cnc2c(N)ncnc21)OC[P@@](=O)(NCCOCc1ccccc1)Oc1ccccc1 [listing 1 of 3 here]
[1]; [6]
  AUCINF: 43.4 ng·h/mL
  AUClast: 41.7 ng·h/mL
  Cmax: 77.5 ng/mL
  MRTINF: 33.6 min
  T1/2: 17.4 min
  Tmax: 18.6 min

## CC(C)OC(=O)[C@H](C)N[P@](=O)(CO[C@H](C)Cn1cnc2c(N)ncnc21)Oc1ccccc1 [TAF, Tenofovir alafenamide]
[2]; patients
  ALT recovery rate: lower than 80%
[2]; share of patients
  Patients in whom glomerular filtration rate decreased by more than 25%: more than 10%
  Patients in whom spinal bone mineral density (BMD) decreased by more than 5%: more than 10%

## C[C@H](Cn1cnc2c(N)ncnc21)OC[P@@](=O)(NCCOCc1ccccc1)Oc1ccccc1 [listing 2 of 3 here]
[3]; DVS
  Hygroscopicity (in words): little or no hygroscopicity
[3]; target humidity 0%
  Mass change caused by moisture absorption (%): 0%
[3]; target humidity 10%
  Mass change caused by moisture absorption (%): 0.019%
[3]; target humidity 20%, listed as crystalline form A of the fumarate salt
  Mass change caused by moisture absorption (%): 0.04%
[3]; target humidity 30%
  Mass change caused by moisture absorption (%): 0.057%
[3]; target humidity 40%
  Mass change caused by moisture absorption (%): 0.078%
[3]; target humidity 50%
  Mass change caused by moisture absorption (%): 0.096%
[3]; target humidity 60%
  Mass change caused by moisture absorption (%): 0.117%
[3]; target humidity 70%
  Mass change caused by moisture absorption (%): 0.137%
[3]; target humidity 80%
  Mass change caused by moisture absorption (%): less than 0.2%
[3]; target humidity 80%, listed as crystalline form A of the fumarate salt
  Mass change caused by moisture absorption (%): 0.158%
[3]; target humidity 90%
  Mass change caused by moisture absorption (%): less than 0.2%
[3]; target humidity 90%, listed as crystalline form A of the fumarate salt
  Mass change caused by moisture absorption (%): 0.192%
[1]; [7]
  AUC(0-inf): 66.7 ng·h/mL
  AUC(0-t): 66.2 ng·h/mL
  half-life: 33 min
[1]; beagle, dog, venous blood, po, analyte: free base of the compound of Formula (I), read-out: Cmax
  Cmax: 67.4 ng/mL
[1]
  Conversion to TFV (in words): rapidly converted to TFV
[1]; [8]
  MRTINF: 73.2 min
  Tmax: 41.4 min
[4]; LC-MS
  Relative purity after storage: up to 99%
[4]; XRPD and LC-MS
  Change after storage (crystalline form and purity, in words): without significant change
[5]; aqueous solution of pH 2.0, simulated gastric fluid, aqueous solution pH 2.0 (hydrochloric acid), read-out: Solubility, H2O (pH 2.0)
  solubility at 24 h: 1000 µg/mL (≈ 2010 µM)
[5]; aqueous solution of pH 7.4, aqueous buffer, aqueous solution pH 7.4 (10 mM potassium dihydrogen phosphate/NaOH), read-out: Solubility, H2O (pH 7.4)
  solubility at 24 h: 990 µg/mL (≈ 1990 µM)
[5]; fasted-state simulated intestinal fluid (FaSSIF), FaSSIF, read-out: Solubility, fasted-state simulated intestinal fluid (FaSSIF)
  solubility at 24 h: 910 µg/mL (≈ 1830 µM)
[5]; water and fasted-state intestinal fluid
  Solubility (in words): good solubility

## C[C@H](Cn1cnc2c(N)ncnc21)OC[P@@](=O)(NCCOCc1ccccc1)Oc1ccccc1 [listing 3 of 3 here]
[3]; target humidity 20%
  Mass change caused by moisture absorption (%): 0.2%
